Results on two compounds are retold here after patent US20050245465A1, “Compounds for treating Alzheimer's disease and for inhibiting beta-amyloid peptitde production” (priority 2004, published 2005).

Entries after “also recorded” stand apart in the source; their conditions may differ. Read-outs that look alike come from different tables or passages of the source.

The test system of series [1] is CHO-APP/PS1 cells. The series is described as follows: Secreted Aβ40/Aβ42 ELISA in CHO-APP/PS1 cells. Type of series: cell-based, Chinese hamster. As to the method:
(§1) FIG. 10 depicts the effects of native ginsenosides on Aβ42 production. CHO cells stably transfected with human APP695 together with either wild-type (A, CHO-APP/PS1 cells) or ΔE9 FAD mutant (B, CHO-APP/ΔE9PS1 cells) forms of PS1 were used. Cells were treated with the indicated compounds (at 50 μM) for 8 hrs. Levels of secreted Aβ40 and Aβ42 in the medium were determined by ELISA and normalized to intracellular full-length APP. In CHO-APP/PS1 cells, average Aβ amounts in control samples were 320 pM for Aβ40 and 79 pM for Aβ42. The relative levels of Aβ and Aβ42 were normalized to values obtained from non-treated and vehicle-treated cells and are shown as % to control+s.d.). One of three representative experiments are shown.
(§2) CHO-APP/PS1 (A) and CHO-APP/ΔE9PS1 (B) cells were treated with the indicated compounds at 50 μM for 8 hrs and the levels of secreted Aβ40 and Aβ42 were determined as described in FIG. 1. […] The PS1-ΔE9 FAD mutation diminished the Aβ42 response to Rk1 treatment (B).

Series [2] relates to CHO cells. The series is described as follows: Cell viability of treated CHO cells. Type of series: cell-based, Chinese hamster. As to the method:
as §2
Tables 1-3 Structure of ginsenosides utilized in the study and their effects on Aβ42 generation. They differ at the two or three side chains attached to the common triterpene backbone known as dammarane. The common structure skeleton for each group of ginsenosides is shown in the top panel. Ginsenosides that harbor Aβ42-lowering activity are indicated in the far right column of the tables: Aβ42-lowering activity (“Yes”), no profound effects (“No”), and non-determined (“ND”). Ginsenosides that affected cell viability are indicated as “Cytotoxic.” Abbreviation for carbohydrates are as follows: Glc, D-glucopyranosyl; Ara (pyr), L-arabinopyranosyl; Ara (fur), L-arabinofuranyosyl; Rha, L-rhamnopyranosyl.
Steaming ginseng at high temperature gave rise to additional ginsenosides with enhanced pharmacological activity, including (20S)Rg3, Rk1 and Rg5 (22-25). Next, the effects of these heat-processing derived ginsenosides (e.g., (20S)Rg3, Rh1, Rh2, Rk1, Rg6, Rg5) on Aβ40 and Aβ42 generation were tested. […] In contrast, Aβ42 levels were not affected by (20R)Rg3, Rh1, and Rg6. […]

For series [3], the system named is CHO-APP/ΔE9PS1 cells. The experiment in a line: Secreted Aβ40/Aβ42 ELISA in CHO-APP/ΔE9PS1 cells. Type of series: cell-based, Chinese hamster. The settings on record: 50 μM, 8 hrs. As for the experimental part:
as §1, §2
Steaming ginseng at high temperature gave rise to additional ginsenosides with enhanced pharmacological activity, including (20S)Rg3, Rk1 and Rg5 (22-25). Next, the effects of these heat-processing derived ginsenosides (e.g., (20S)Rg3, Rh1, Rh2, Rk1, Rg6, Rg5) on Aβ40 and Aβ42 generation were tested. […] In contrast, Aβ42 levels were not affected by (20R)Rg3, Rh1, and Rg6. Aβ40 levels were not changed by treatment with any of the ginsenosides tested. The potency of Aβ42-lowering activity was highest with Rk1 and (20S)Rg3. […] The secretion of Aβ40 was affected by treatment with Rk1 only at very high concentration (˜100 μM) and cell viability was not affected by treatment of Rk1 under these conditions (up to 100 μM, 8 hour treatment; data not shown). […] Overnight treatment with Rgk351, Rk1, and Rg5 also reduce Aβ42 production in CHO-APP cells (FIG. 12B). […]
(In general: An ELISA detects its analyte on a solid surface through an enzyme-linked reagent.)

The test system of series [4] is primary embryonic cortical neurons derived from Tg2576 transgenic mice. The experiment in a line: Aβ40 and Aβ42 secretion in primary embryonic cortical neurons. Type of series: cell-based. From the text:
Treatment of Rk1 and Rg3 decreased the level of secreted Aβ40 and Aβ42.

Series [5] concerns APP. The experiment in a line: Western blot of APP processing in CHO-APP and Neuro2a-APPsw cells. Type of series: cell-based, Chinese hamster and mouse. The following applies: cell lysates. From the text: FIG. 13. depicts an analysis of APP processing after Rk1 treatment. Steady-state levels of full-length APP and APP C-terminal fragments (APP-CTFs) were examined by Western blot analysis using anti-R1 antibody. […] Correlated Aβ42 levels for each sample are shown in the bottom panel.
(In western blotting, separated proteins are transferred to a membrane and probed.)

Series [6] relates to CHO-APP cells. The experiment in a line: Mass spectrometric analysis of Aβ species from CHO-APP cells. The following applies: mass spectrometry, vs DMSO. It counts as cell-based, Chinese hamster. As for the experimental part: Note that treatment leads to a decrease in Aβ42 species (1-42), and elevation in both Aβ37 (1-37) and Aβ38 (1-38). Mass spectrometric analysis of Aβ species were performed as previously described (Wang R, Sweeny D, Gandy S E, Sisodia S S. The profile of soluble amyloid β-protein in cultured cell media. J. Bio. Chem. 1996; 271: 31894-31902).

The subject of series [7] is CHO cells expressing human APP. The series is described as follows: Secreted Aβ40/Aβ42 ELISA in medium of CHO-APP cells. Also on record: key to Aβ42-lowering activity: Aβ42-lowering activity (“Yes”); no profound effects (“No”); non-determined (“ND”); Ginsenosides that affected cell viability are indicated as “Cytotoxic.”. It counts as cell-based, Chinese hamster. As for the experimental part: The CHO cells were treated with the indicated compounds (at 50 μg/ml) for 8 hrs. Aβ42 levels in the medium were measured by ELISA and normalized to intracellular full-length APP.
The potential effects of ginsenosides and their analogues in treating AD were examined. First, a number of ginsenosides were screened based on their effects on Aβ generation. The effects of various ginsenosides on Aβ (e.g., Aβ40 and Aβ42) production was initially accessed by incubating the Chinese hamster ovary (CHO) cells expressing human APP(CHO-APP cells) with each ginsenoside purified from unprocessed ginseng (known as “white ginseng”). These representative ginsenosides included Rb1, Rb2, Rc, Rd, Re, Re, Rg1 and Rg2 and differ in their side chains and sugar moieties.
After 8 hours of incubation, the media were collected and the levels of secreted Aβ40 and Aβ42 were determined by ELISA.
Steaming ginseng at high temperature gave rise to additional ginsenosides with enhanced pharmacological activity, including (20S)Rg3, Rk1 and Rg5 (22-25). Next, the effects of these heat-processing derived ginsenosides (e.g., (20S)Rg3, Rh1, Rh2, Rk1, Rg6, Rg5) on Aβ40 and Aβ42 generation were tested. […] In contrast, Aβ42 levels were not affected by (20R)Rg3, Rh1, and Rg6. Aβ40 levels were not changed by treatment with any of the ginsenosides tested. The potency of Aβ42-lowering activity was highest with Rk1 and (20S)Rg3. […] The secretion of Aβ40 was affected by treatment with Rk1 only at very high concentration (˜100 μM) and cell viability was not affected by treatment of Rk1 under these conditions (up to 100 μM, 8 hour treatment; data not shown). […] Overnight treatment with Rgk351, Rk1, and Rg5 also reduce Aβ42 production in CHO-APP cells (FIG. 12B). […] These studies provide a structure-activity relationship between the chemical structures of ginsenosides and Aβ42-lowering activity, further providing the basis for designing additional Aβ42-lowering analogues as well as for defining a class of compounds that harbor Aβ42-lowering activity.

The test system of series [8] is γ-secretase. The series is described as follows: Cell-free γ-secretase assay (CHAPSO-solubilized membrane fractions, Aβ ELISA). Type of series: biochemical. As for the experimental part:
(A) CHAPSO-solubilized membrane fractions were incubated with recombinant γ-secretase substrates together with the indicated compounds (at 100 μM) and the levels of Aβ42 and Aβ40 were determined by ELISA as described (27-29). (B) Dose-response of Aβ40 and Aβ42-lowering activity of Rk1 and (20S)Rg3 in a cell-free γ-secretase assay.
Next, the inhibitory effects of Rk1 and (20S)Rg3 on Aβ generation in an in vitro γ-secretase assay was studied. […] In contrast, naproxen, an NSAID without Aβ42-lowering activity, had no effects on Aβ42 production (FIG. 15A).

Series [9] concerns γ-secretase. The series is described as follows: Cell-free generation of intracellular domains (AICD, NICD, p75-ICD) in membrane fractions of 293 cells. Type of series: biochemical. The settings on record: membrane fractions from 293 cells overexpressing APP, Notch-ΔE or p75-ΔE. As to the method:
Membrane fractions isolated from 293 cells overexpressing either APP (A), Notch-ΔE (B) or p75-ΔE (C) and incubated in the presence of indicated compounds: Compound E (CpdE, general γ-secretase inhibitor), Rgk351, Rk1 and sulindac sulfide (SS).
Since the effect of Rk1 was rather selective to Aβ42 (but not Aβ40) in a cell-based assay, the question of whether Rk1 affects other γ-secretase-mediated cleavage events, including the generation of AICD resulted from a transmembrane cleavage of APP distal from either Aβ40 or Aβ42 site, and γ-secretase-mediated intramembrane cleavage of Notch1 or p75 neurotrophin receptor (p75NTR) to yield Notch1 or p75NTR intracellular domains (NICD or p75-ICD, respectively) was tested. The cell-free generation of AICD, NICD and p75-ICD was not affected by incubation with Rgk351 or Rk1 (FIG. 5).

[10] abbreviates: overnight treatment, CHO-APP cells.

As for `CC(C)=CCC[C@](C)(O)[C@H]1CC[C@]2(C)[C@@H]1[C@H](O)C[C@@H]1[C@@]3(C)CC[C@H](O[C@@H]4O[C@H](CO)[C@@H](O)[C@H](O)[C@H]4O)C(C)(C)[C@@H]3CC[C@]12C` [Rh2], the Aβ42-lowering effects entry in [1] (50 μM, 8 hrs) is listed as “exhibited Aβ42-lowering effects”. In addition, the cell viability result in series [2] (50 μM treatment) is listed as “partially affected”.
For `C=C(CCC=C(C)C)[C@H]1CC[C@]2(C)[C@@H]1[C@H](O)C[C@@H]1[C@@]3(C)CC[C@H](O[C@@H]4O[C@H](CO)[C@@H](O)[C@H](O)[C@H]4O[C@@H]4O[C@H](CO)[C@@H](O)[C@H](O)[C@H]4O)C(C)(C)[C@@H]3CC[C@]12C` [Rk1], the “Aβ42-lowering response in PS1 ΔE9 FAD mutant cells vs PS1 wild-type cells” value in series [3] is recorded as “diminished”. In series [1] (50 μM, 8 hrs), the “potency of Aβ42-reducing activity (order)” value was “Rk1>/=(20S)Rg3>Rg5>(20R)Rg3”. The Aβ42 levels entry in series [1] (CHO cells co-expressing human APP with wild-type PS1 or FAD mutant PS1 (delta E9, L286V)) is reported as “reduced”. Further, in [4], the “level of secreted Aβ40 and Aβ42” value was “decreased”. The “full-length APP levels” value in series [5] is listed as “not affected; also recorded: did not affect”. For the same compound, the “APP C-terminal fragments (γ-secretase substrates)” value in series [5] (CHO-APP and Neuro2a APPsw cells) is on record as “increased accumulation; also recorded: up-regulated”. Also, in series [6], the “Aβ37 (1-37) and Aβ38 (1-38)” value is “elevation”; the “Aβ42 species (1-42)” value is listed as “decrease”. Moreover, the cell viability entry in [2] (up to 100 μM, 8 hour treatment) is on record as “not affected”. Besides, the “potency of Aβ42-lowering activity (comparison among ginsenosides)” value in [7] is reported as “most effective; also recorded: highest”. The “concentration at which secretion of Aβ40 was affected” value in [7] (8 hour treatment) is approximately 100 µM. Moreover, the “Aβ42 in the medium, dose-dependence” value in series [7] (CHO cells expressing human APP) is reported as “reduced; also recorded: lower Aβ42 in a dose-dependent manner”. For the same compound, in series [7] (CHO cells stably transfected with human APP695, 50 μg/ml, 8 hrs), the “generation of Aβ42 (Aβ42 levels in the medium, ELISA, normalized to intracellular full-length APP)” value was “reduce”. Also, the “Aβ42 vs. Aβ40 in the medium (preference)” value in series [7] (CHO-APP cells, normalized to non-treated and vehicle-treated cells) was “preferentially reduced Aβ42 (vs. Aβ40); also recorded: preferentially lowers Aβ42 (vs. Aβ40)”. For the same compound, in [7] (CHO-APP cells, read-out: IC50 of Aβ42 lowering activity), the IC50 is approximately 20 µM. Besides, the Aβ42-lowering activity result in series [7] (Tables 1-3) is “Yes”. Moreover, the “secretion of Aβ42 (initial screening)” value in series [7] (heat-processing derived ginsenosides) is on record as “selectively lowered”. In series [7] (mammalian cells, in vitro), the “production of Aβ42 in cells (summary statement)” value was “lower”. Further, in series [7] (setting [10]), the Aβ40 production result is “slightly affected” and the Aβ42 production result was “reduce”. Moreover, the “Aβ42 generation in vitro” value in series [8] (cell-free γ-secretase assay, partially purified γ-secretase complex, 100 μM) was “inhibit; also recorded: potently inhibited”. Besides, the IC50 in series [8] (cell-free γ-secretase assay, read-out: IC50 for Aβ40) was 27 ± 3 µM. For the same compound, in [8] (cell-free γ-secretase assay, read-out: IC50 for Aβ42), the IC50 was found to be 32 ± 5 µM. In addition, the “Aβ40 and Aβ42 generation in cell-free γ-secretase assay” value in series [8] (dose-response) was “inhibits; also recorded: inhibited both Aβ40 and Aβ42 with a similar potency”. For the same compound, the “cell-free generation of AICD, NICD and p75-ICD” value in [9] is “does not significantly affect; also recorded: not affected”.

The IC50 is the point on the concentration scale where inhibition reaches its midpoint.
